Measured values: ChEMBL document CHEMBL3085635, “Synthesis of structurally diverse benzosuberene analogues and their biological evaluation as anti-cancer agents” (Bioorg Med Chem, 2013)

Tests used:
DU-145 = experiment: Cytotoxicity against human DU145 cells after 48 hrs by SRB assay; type: functional
[1] = Inhibition of calf brain tubulin polymerization after 15 mins by UV-visible spectrophotometry; design: species or system Bos taurus
NCI-H460 = experiment: Cytotoxicity against human NCI-H460 cells after 48 hrs by SRB assay; type: functional
SK-OV-3 = experiment: Cytotoxicity against human SKOV3 cells after 48 hrs by SRB assay; type: functional

COc1ccc(C2=CCCCc3c2ccc(OC)c3OC)cc1OC
GI50 (DU-145; Homo sapiens, DU-145, 48 h): 42500 nM | IC50 [1]: > 40000 nM | GI50 (NCI-H460; Homo sapiens, NCI-H460, 48 h): > 136000 nM | GI50 (SK-OV-3; Homo sapiens, SK-OV-3, 48 h): > 89500 nM

COc1ccc2c(c1Cl)CCCC=C2c1cc(OC)c(OC)c(OC)c1
GI50 (DU-145; Homo sapiens, DU-145, 48 h): 152 nM | IC50 [1]: 930 nM | GI50 (NCI-H460; Homo sapiens, NCI-H460, 48 h): 71.3 nM | GI50 (SK-OV-3; Homo sapiens, SK-OV-3, 48 h): 44.4 nM

COc1ccc2c(c1F)CCCC=C2c1cc(OC)c(OC)c(OC)c1
GI50 (DU-145; Homo sapiens, DU-145, 48 h): 18.9 nM | IC50 [1]: 890 nM | GI50 (NCI-H460; Homo sapiens, NCI-H460, 48 h): 5.47 nM | GI50 (SK-OV-3; Homo sapiens, SK-OV-3, 48 h): 7.51 nM

COc1cc2c(c(OC)c1O)CCCC=C2c1cc(OC)c(OC)c(OC)c1
GI50 (DU-145; Homo sapiens, DU-145, 48 h): 15700 nM | IC50 [1]: > 40000 nM | GI50 (NCI-H460; Homo sapiens, NCI-H460, 48 h): 18000 nM | GI50 (SK-OV-3; Homo sapiens, SK-OV-3, 48 h): 7130 nM

COc1cc(C2=CCCCc3ccccc32)cc(OC)c1OC
GI50 (DU-145; Homo sapiens, DU-145, 48 h): 22000 nM | IC50 [1]: > 40000 nM | GI50 (NCI-H460; Homo sapiens, NCI-H460, 48 h): 32500 nM | GI50 (SK-OV-3; Homo sapiens, SK-OV-3, 48 h): 19100 nM

COc1ccc(C2=CCCCc3c2ccc(OC)c3O)cc1OC
GI50 (DU-145; Homo sapiens, DU-145, 48 h): 109 nM | IC50 [1]: 740 nM | GI50 (NCI-H460; Homo sapiens, NCI-H460, 48 h): 262 nM | GI50 (SK-OV-3; Homo sapiens, SK-OV-3, 48 h): 33.4 nM

COc1cc(C2=CCCCc3c2cc(OC)c(OC)c3O)cc(OC)c1OC
GI50 (DU-145; Homo sapiens, DU-145, 48 h): 38400 nM | IC50 [1]: > 40000 nM | GI50 (NCI-H460; Homo sapiens, NCI-H460, 48 h): 25900 nM | GI50 (SK-OV-3; Homo sapiens, SK-OV-3, 48 h): 18100 nM

COc1cc(C2=CCCCc3c2ccc(OC)c3OP(=O)(O)O)cc(OC)c1OC
GI50 (DU-145; Homo sapiens, DU-145, 48 h): 9.51 nM | IC50 [1]: > 40000 nM | GI50 (NCI-H460; Homo sapiens, NCI-H460, 48 h): 7.96 nM

COc1ccc2c(c1N)CCCC=C2c1cc(OC)c(OC)c(OC)c1
IC50 [1]: 1200 nM | GI50 (NCI-H460; Homo sapiens, NCI-H460, 48 h): 2.8 nM | GI50 (SK-OV-3; Homo sapiens, SK-OV-3, 48 h): 0.102 nM

COc1ccc2c(c1NC(=O)[C@@H](N)CO)CCCC=C2c1cc(OC)c(OC)c(OC)c1 [listing 1 of 2 here]
GI50 (DU-145): 70500 nM | GI50 (NCI-H460): 39000 nM | GI50 (SK-OV-3): 36800 nM

COc1ccc2c(c1NC(=O)[C@@H](N)CO)CCCC=C2c1cc(OC)c(OC)c(OC)c1 [listing 2 of 2 here]
GI50 (DU-145; Homo sapiens, DU-145, 48 h): 69400 nM | GI50 (NCI-H460; Homo sapiens, NCI-H460, 48 h): 53800 nM | GI50 (SK-OV-3; Homo sapiens, SK-OV-3, 48 h): 35000 nM

COc1ccc2c(c1O)CCCC=C2c1cc(OC)c(OC)c(OC)c1
GI50 (DU-145; Homo sapiens, DU-145, 48 h): 0.0249 nM | IC50 [1]: 1400 nM | GI50 (NCI-H460; Homo sapiens, NCI-H460, 48 h): 0.0418 nM | GI50 (SK-OV-3; Homo sapiens, SK-OV-3, 48 h): 0.0543 nM

COc1ccc(/C=C\c2cc(OC)c(OC)c(OC)c2)cc1O [COMBRETASTATIN A4]
GI50 (DU-145; Homo sapiens, DU-145, 48 h): 3.27 nM | GI50 (NCI-H460; Homo sapiens, NCI-H460, 48 h): 2.23 nM | GI50 (SK-OV-3; Homo sapiens, SK-OV-3, 48 h): 4.55 nM

COc1ccc(/C=C\c2cc(OC)c(OC)c(OC)c2)cc1OP(=O)(O)O [FOSBRETABULIN DISODIUM]
GI50 (DU-145; Homo sapiens, DU-145, 48 h): 3.23 nM | IC50 [1]: > 40000 nM | GI50 (NCI-H460; Homo sapiens, NCI-H460, 48 h): 1.94 nM | GI50 (SK-OV-3; Homo sapiens, SK-OV-3, 48 h): 1.19 nM
